Data as given in the NIST ThermoML archive (doi:10.1021/je700236c).
Several values for one entry are separate records, joined by “and”; a condition that tells them apart may be missing. Identical values can stand only once.

Details: Gas, Buoyancy - hydrostatic balance with magnetic suspension - two sinkers

FC(F)C(F)(F)F [pentafluoroethane]
Details | mass density
283.15 K, 207.2 kPa | 10.978 kg/m3 and 10.98 kg/m3
283.15 K, 442.7 kPa | 24.675 kg/m3 and 24.667 kg/m3
283.15 K, 617.4 kPa | 35.904 kg/m3 and 35.92 kg/m3
283.15 K, 710.7 kPa | 42.388 kg/m3
283.15 K, 710.8 kPa | 42.398 kg/m3
283.15 K, 758.3 kPa | 45.855 kg/m3 and 45.853 kg/m3
283.15 K, 811.7 kPa | 49.881 kg/m3 and 49.877 kg/m3
283.15 K, 828 kPa | 51.141 kg/m3 and 51.137 kg/m3
283.15 K, 857 kPa | 53.429 kg/m3 and 53.417 kg/m3
283.15 K, 872.2 kPa | 54.64 kg/m3
283.15 K, 872.3 kPa | 54.652 kg/m3
283.15 K, 880 kPa | 55.27 kg/m3 and 55.283 kg/m3
283.15 K, 889.1 kPa | 56.021 kg/m3
283.15 K, 889.2 kPa | 56.023 kg/m3
283.15 K, 901.7 kPa | 57.048 kg/m3 and 57.055 kg/m3
293.15 K, 205.9 kPa | 10.502 kg/m3
293.15 K, 206 kPa | 10.492 kg/m3
293.15 K, 413.1 kPa | 21.853 kg/m3
293.15 K, 413.2 kPa | 21.867 kg/m3
293.15 K, 605 kPa | 33.264 kg/m3 and 33.278 kg/m3
293.15 K, 799.7 kPa | 45.976 kg/m3
293.15 K, 799.8 kPa | 45.993 kg/m3
293.15 K, 901.5 kPa | 53.187 kg/m3 and 53.196 kg/m3
293.15 K, 1000.4 kPa | 60.669 kg/m3
293.15 K, 1000.5 kPa | 60.666 kg/m3
293.15 K, 1051.5 kPa | 64.739 kg/m3 and 64.718 kg/m3
293.15 K, 1101.2 kPa | 68.839 kg/m3
293.15 K, 1101.3 kPa | 68.86 kg/m3
293.15 K, 1133.2 kPa | 71.588 kg/m3 and 71.578 kg/m3
293.15 K, 1149.6 kPa | 73.019 kg/m3
293.15 K, 1149.7 kPa | 73.016 kg/m3
293.15 K, 1170.5 kPa | 74.869 kg/m3
293.15 K, 1170.6 kPa | 74.882 kg/m3
293.15 K, 1181.8 kPa | 75.887 kg/m3
293.15 K, 1182 kPa | 75.908 kg/m3
293.15 K, 1192.1 kPa | 76.823 kg/m3
293.15 K, 1192.2 kPa | 76.841 kg/m3
293.15 K, 1200.9 kPa | 77.624 kg/m3
293.15 K, 1201 kPa | 77.644 kg/m3
303.15 K, 225.1 kPa | 11.079 kg/m3 and 11.067 kg/m3
303.15 K, 411.9 kPa | 20.874 kg/m3 and 20.883 kg/m3
303.15 K, 602.3 kPa | 31.549 kg/m3 and 31.562 kg/m3
303.15 K, 800.1 kPa | 43.526 kg/m3 and 43.535 kg/m3
303.15 K, 999.2 kPa | 56.733 kg/m3
303.15 K, 999.3 kPa | 56.74 kg/m3
303.15 K, 1202.4 kPa | 71.762 kg/m3 and 71.771 kg/m3
303.15 K, 1299.2 kPa | 79.657 kg/m3
303.15 K, 1299.4 kPa | 79.674 kg/m3
303.15 K, 1406.6 kPa | 89.099 kg/m3
303.15 K, 1406.7 kPa | 89.124 kg/m3
303.15 K, 1450.2 kPa | 93.212 kg/m3 and 93.199 kg/m3
303.15 K, 1481.2 kPa | 96.221 kg/m3
303.15 K, 1481.3 kPa | 96.231 kg/m3
303.15 K, 1505.2 kPa | 98.609 kg/m3 and 98.623 kg/m3
303.15 K, 1520.5 kPa | 100.175 kg/m3
303.15 K, 1520.6 kPa | 100.195 kg/m3
303.15 K, 1537.3 kPa | 101.933 kg/m3
303.15 K, 1537.4 kPa | 101.917 kg/m3
303.15 K, 1565.1 kPa | 104.879 kg/m3
303.15 K, 1565.8 kPa | 104.956 kg/m3
313.15 K, 203.4 kPa | 9.623 kg/m3 and 9.618 kg/m3
313.15 K, 404.5 kPa | 19.688 kg/m3
313.15 K, 404.6 kPa | 19.685 kg/m3
313.15 K, 602.7 kPa | 30.217 kg/m3 and 30.212 kg/m3
313.15 K, 801.5 kPa | 41.504 kg/m3 and 41.496 kg/m3
313.15 K, 1002 kPa | 53.773 kg/m3 and 53.76 kg/m3
313.15 K, 1199.3 kPa | 66.926 kg/m3 and 66.915 kg/m3
313.15 K, 1398.2 kPa | 81.578 kg/m3
313.15 K, 1398.3 kPa | 81.585 kg/m3
313.15 K, 1604.4 kPa | 98.7 kg/m3
313.15 K, 1604.5 kPa | 98.71 kg/m3
313.15 K, 1705.9 kPa | 108.153 kg/m3 and 108.152 kg/m3
313.15 K, 1814.1 kPa | 119.179 kg/m3 and 119.18 kg/m3
313.15 K, 1900.7 kPa | 128.938 kg/m3 and 128.932 kg/m3
313.15 K, 1951.9 kPa | 135.196 kg/m3 and 135.193 kg/m3
313.15 K, 1976.7 kPa | 138.379 kg/m3 and 138.387 kg/m3
313.15 K, 1990.3 kPa | 140.201 kg/m3 and 140.173 kg/m3
313.15 K, 2001.8 kPa | 141.759 kg/m3
313.15 K, 2002 kPa | 141.763 kg/m3
323.15 K, 196.2 kPa | 8.951 kg/m3 and 8.953 kg/m3
323.15 K, 495.8 kPa | 23.505 kg/m3 and 23.498 kg/m3
323.15 K, 798.1 kPa | 39.455 kg/m3 and 39.458 kg/m3
323.15 K, 999.5 kPa | 50.95 kg/m3
323.15 K, 999.6 kPa | 50.954 kg/m3
323.15 K, 1199 kPa | 63.156 kg/m3 and 63.162 kg/m3
323.15 K, 1399 kPa | 76.417 kg/m3 and 76.411 kg/m3
323.15 K, 1599.7 kPa | 90.933 kg/m3 and 90.927 kg/m3
323.15 K, 1798.9 kPa | 106.993 kg/m3
323.15 K, 1799 kPa | 106.996 kg/m3
323.15 K, 2000.3 kPa | 125.421 kg/m3 and 125.435 kg/m3
323.15 K, 2100.4 kPa | 135.708 kg/m3 and 135.695 kg/m3
323.15 K, 2201.4 kPa | 147.071 kg/m3
323.15 K, 2201.5 kPa | 147.082 kg/m3
323.15 K, 2301.3 kPa | 159.592 kg/m3 and 159.61 kg/m3
323.15 K, 2350 kPa | 166.311 kg/m3
323.15 K, 2350.1 kPa | 166.298 kg/m3
323.15 K, 2400.2 kPa | 173.712 kg/m3 and 173.74 kg/m3
323.15 K, 2430 kPa | 178.427 kg/m3
323.15 K, 2430.1 kPa | 178.468 kg/m3
323.15 K, 2451.8 kPa | 182.037 kg/m3 and 182.009 kg/m3
323.15 K, 2469.3 kPa | 185.047 kg/m3 and 185.021 kg/m3
